Tested on: arteriovenous shunt model in rats
Test: Antithrombotic effect in an arteriovenous shunt model in rats
Type: in vivo
Description: a) Determination of the Antithrombotic Effect in an Arteriovenous Shunt Model in Rats Fasting male rats (strain: HSD CPB:WU) were anesthetized by intraperitoneal administration of a Rompun/Ketavet solution (12 mg/kg/50 mg/kg). Thrombi were generated in an arteriovenous shunt in which a thrombogenic thread was secured, based on the method described by P C Wong et al. (Wong […], Nguan O, Watson […]. […] For this purpose, the left jugular vein and the right carotid artery were exposed. An 8 cm-long polyethylene catheter (PE60, Becton-Dickinson), followed by a 6 cm-long Tygon tube (R-3606, ID 3.2 mm, Kronlab), which contained a roughened, thrombogenic nylon thread (60×0.26 mm, […]) made into a double loop, was secured in the artery. A 2 cm-long polyethylene catheter (PE60, Becton-Dickinson) was secured in the jugular vein and connected via a 6 cm-long polyethylene catheter (PE160, Becton-Dickinson) to the Tygon tube. The tubes were filled with physiological saline solution before the shunt was opened. The extracorporeal circulation was maintained for 15 minutes. The shunt was then removed, and the nylon thread with the thrombus was immediately weighed. The empty weight of nylon thread has been determined before the start of the test. The FXa inhibitor (such as rivaroxaban) was administered to the animals intravenously, and acetylsalicylic acid (ASA) and/or ADP receptor antagonist (such as clopidogrel) was administered orally by gavage before setting up the extracorporeal circulation.

[1] = doses [mg/kg]: Example 44 0.01 iv, Clopi + ASA 1 po + 3 po, triple 0.01 iv + 1 po + 3 po
[2] = doses [mg/kg]: Example 44 0.03 iv, Clopi + ASA 1 po + 3 po, triple 0.03 iv + 1 po + 3 po

O=C(NC[C@H]1CN(c2ccc(N3CCOCC3=O)cc2)C(=O)O1)c1ccc(Cl)s1 [Example 44, 5-Chloro-N-({(5S)-2-oxo-3-[4-(3-oxo-4-morpholinyl)phenyl]-1,3-oxazolidin-5-yl}methyl)-2-thiophencarboxamide]
Antithrombotic effect (assessment in words) [1]: No effect
Thrombus reduction [%] [1]: 18%
Antithrombotic effect (assessment in words) [2]: No effect
Thrombus weight reduction [%] [2]: 20%
Antithrombotic effect, summary of Table 1 in words (doses of Table 1): ineffective

Reference: patent US20160303138A1, “Combination Therapy Of Substituted Oxazolidinones” (Bayer Intellectual Property GMBH, priority 2006, published 2016)
